Molecules are shown by their SMILES. Entries after “also recorded” stand apart in the source; their conditions may differ.

This is an account of results in patent US20250009743A1, “METHODS OF TREATING CANCERS USING STING AGONISTS” (Dana-Farber Cancer Institute, Inc., priority 2021, published 2025).

The subject of assay [1] is PE tumors. Briefly: Flow cytometry of immune cells in PE tumors and tumor-drainage lymph nodes. It is filed as in vivo, mouse. The protocol:
To obtain single-cell suspension from tumor mass, tumors were excised, minced and dissociated in collagenase buffer (DMEM supplemented with 5% FBS, 10 mM HEPES [Gibco), 100 μg/mL penicillin-streptomycin, 20 μg/mL DNase I [StemCell] and 1× collagenase/hyaluronidase [StemCell]) at 37° C. for 45 min. Tumor-draining lymph nodes were isolated from tumor-bearing mice and were mashed through 70 μm strainer using plunger of a syringe to obtain single-cell suspension.
For FACS staining, tissue cells were first stained with LIVE/DEAD Fixable Aqua Dead Cell Stain (Thermo Fisher) for 30 min on ice, followed by blocking with anti-CD16/32 (BioLegend) for 20 minutes on ice. Afterwards, cells were incubated with antibodies targeting surface biomarkers in FACS buffer for 30 minutes on ice.

A further assay has as its system PC9GR4. Briefly: CXCL10 and CCL5 expression in PC9GR4 cells (RT-PCR). It is filed as cell-based, human. To be noted: FIG. 27C. The procedure:
(§1) Cultured cells were lysed in 1 mL TRIZOL® reagent supplied with 200 μL chloroform, after which, samples were vortexed vigorously for 15s and incubated at room temperature for 2 to 3 minutes. The samples were then centrifuged at 12000 g for 15 minutes at 4° C., and collected aqueous phase only. […] Relative mRNA levels were calculated using the […]. Mouse Actb and human GAPDH were used as endogenous controls for mouse and human samples, respectively.

Assay [2] deals with EFGR/ERK signaling pathway.
A further assay deals with PE tumor cells. Briefly: CXCL10 and CCL5 expression in PE tumor cells (RT-PCR). Format: cell-based, mouse. To be noted: FIG. 27C. The procedure: as §1
The subject of assay [3] is PE tumors. The assay is described as follows: PE (exon19del/T790M EGFR, Trp53 loss) tumor growth in FVB mice. Particulars: mouse, in vivo. Format: in vivo, mouse.
For the next assay, the system named is THP-1 macrophages. The assay is described as follows: Marker expression in MDA-MB-436 tumor cell-educated THP-1 macrophages. Format: cell-based, human. To be noted: ADU-S100 10 μM, two days; FIG. 7G. The procedure: Cells were cultured in a humidified incubator under 5% CO2 at 37° C. MDA-MB-436, HCC1937 and THP-1 human cell lines were obtained from ATCC, tested negative for mycoplasma, and authenticated using short tandem repeat analysis (Promega GenePrint 10 System). MDA-MB-436 and HCC1937 breast cancer cells were cultured in RPMI 1640 medium (Gibco) supplemented with 10% heat-inactivated fetal bovine serum (FBS, Gemini) and 100 μg/mL penicillin-streptomycin (Gibco). THP-1 monocytes were cultured in RPMI 1640 with 10% FBS and 0.055 mM 2-mercaptoethanol (Gibco, #21985023). To differentiate THP-1 monocytes to macrophages, cells were treated with 100 nM PMA (Sigma, #P1585) for 48 h, followed by 24 h recovery with PMA-free medium.
For flow cytometry analyses of tumor and TDLN samples, single-cell suspensions were obtained as described above (Tissue Digestion). Cells were stained in cold FACS buffer (PBS containing 0.2% BSA and 5 mM EDTA) with LIVE/DEAD Fixable Aqua Dead Cell Stain (Thermo Fisher) for 30 min on ice, followed by blocking with anti-CD16/32 (BioLegend) for 20 min on ice. […] All data were analyzed using FlowJo software. […]

Assay [4] deals with BMDMs generated from FVB/NJ mice. Briefly: Polarization of mouse BMDMs cultured in PBM / PBM-R conditioned medium. Format: cell-based. To be noted: BMDMs in 50% PBM-R-CM; ADU-S100 10 μM or MSA-2 5 ug/ml, two days; FIG. 21B. The protocol: For ex vivo culture of mouse macrophages, bone marrow cells were isolated from FVB/NJ mice and cultured in DMEM containing 10% FBS, 55 μM 2-Mercaptoethanol and 20 ng/ml M-CSF. BMDMs (bone marrow derived macrophages) were harvested on day 7 and further cultured in 2.0 ml control medium (90% DMEM, 10% FBS, 55 μM 2-Mercaptoethanol and 5 ng/ml M-CSF) described above or the medium containing 50% tumor cell conditioned medium for 72 hrs before analysis. For the tumor cell conditioned medium, about 3×10^5 tumor cells were cultured in 6-well plate for 24 hrs and then treated with DMSO or olaparib. After 24 hrs incubation with DMSO or olaparib, the tumor cells were washed twice with PBS and cultured in DMEM containing 10% FBS for 48 hrs. The tumor cell conditioned medium was collected by centrifugation at 1,500 g for 5 min at 4° C. to remove all the debris and cells. For the cytokine blocking experiment, monoclonal antibodies that specific to each cytokine were added to the tumor cell conditioned medium before it was applied to culture macrophages.

A further assay concerns human BMDMs. Briefly: Polarization of human BMDMs cultured in CM from ovarian PDXs. Format: cell-based. To be noted: STAT3 inhibitor-treated PDXs; FIG. 25D. The procedure: For ex vivo culture of human macrophages, human BMDMs were generated from bone marrow mononuclear cells (BMMs) (CAT #70001) obtained from […] Technologies. Briefly, BMMs were cultured in DMEM containing 10% FBS, 55 μM 2-Mercaptoethanol (CAT #21985023, Thermo Fisher) and 50 ng/ml M-CSF for 5-7 days with media replacement every 3 days to obtain matured macrophages (BMDMs). […] Flow cytometry analysis was preformed to analyze the phenotypes of macrophages for both mouse and human BMDMs.

As to `C=CC(=O)Nc1cc(Nc2nccc(-c3cn(C)c4ccccc34)n2)c(OC)cc1N(C)CCN(C)C` [osimertinib], the “T cells or IFNg^+/TNFa^+ T cells in large PE tumors” value in the assay with PE tumors [1] (large tumors) is listed as “did not lead to increase”. Further, in the assay on PE tumors [1] (single-agent treatment, FIG. 30B), the “tumor immune microenvironment of large PE tumors” value is “did not significantly affect”. Besides, in the assay on PE tumors [1] (small tumors, FIG. 27B), the “CD8^+ and CD4^+ T cells in tumor” value was “induced the recruitment of CD8^+ and CD4^+ T cells”; the “IFNg-positive CD8^+ and CD4^+ T cells” value was “increase”. The “expression of CXCL10 and CCL5” value with PC9GR4 is given as “significantly elevated”. Further, the “activation of EFGR/ERK signaling pathway (phosphorylation of EGFR and ERK)” value in assay [2] is on record as “inhibited”. The “expression of CXCL10 and CCL5” value with PE tumor cells is listed as “significantly elevated”. Also, in the assay on PE tumors [3], the PE tumor growth entry is “significantly slowed PE tumor growth; also recorded: tumor regression; also recorded: only modest therapeutic effects”; the “growth of large PE tumors” value is “progressed through osimertinib treatment and presented growth rates comparable to control”; the “therapeutic effect under CD8^+ T cell depletion” value is recorded as “significantly mitigated”.

`Nc1ncnc2c1ncn2[C@@H]1O[C@@H]2COP(=O)([S-])O[C@@H]3[C@H](O)[C@@H](COP([O-])(=S)O[C@H]2[C@H]1O)O[C@H]3n1cnc2c(N)ncnc21.[Na+].[Na+]` (some centres unmarked) [ADU-S100]: in the assay on THP-1 macrophages, the CD86 expression result is on record as “significantly increased” and the CD163 expression entry is recorded as “suppressed”. Also, the M1/M2 ratio result in assay [4] is “significantly increased”.

Regarding `CC(=O)c1cc2c(o1)C(=O)c1ccccc1C2=O` [napabucasion], the “M2-like macrophage polarization induced by CM from DF86 and DF118” value with human BMDMs is recorded as “partially diminished”.
